Measured values as given in ChEMBL document CHEMBL2406938, “Inhibitors of the renal outer medullary potassium channel” (ACS Med Chem Lett, 2013).

Assays:
[1] = molecular target: T1, ATP-sensitive inward rectifier potassium channel 1 (Homo sapiens) (UniProt P48048); assay: Inhibition of human Kir1.1 expressed in HEK293 cells by thallium flux assay; assay type: cell-based
T1 sequence (whole entry): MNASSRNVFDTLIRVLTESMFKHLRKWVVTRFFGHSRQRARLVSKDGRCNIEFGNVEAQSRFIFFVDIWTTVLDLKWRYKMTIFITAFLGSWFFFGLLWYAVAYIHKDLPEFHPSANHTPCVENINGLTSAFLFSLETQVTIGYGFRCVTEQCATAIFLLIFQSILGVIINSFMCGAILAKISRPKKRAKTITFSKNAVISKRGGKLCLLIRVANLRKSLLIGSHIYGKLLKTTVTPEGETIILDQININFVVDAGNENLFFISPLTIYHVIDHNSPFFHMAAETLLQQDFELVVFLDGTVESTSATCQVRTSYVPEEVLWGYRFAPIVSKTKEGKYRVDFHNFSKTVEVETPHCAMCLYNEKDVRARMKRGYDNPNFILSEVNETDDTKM

[2] = molecular target: T1, ATP-sensitive inward rectifier potassium channel 1 (Homo sapiens); assay: Inhibition of human Kir1.1 expressed in CHO cells by whole cell voltage clamp assay; assay type: cell-based

SMILES	INH [1] [µM]	INH [2] [µM]
N#Cc1c(F)ccc([C@@H]2CN3CCN(C(=O)C4CCc5nc(-n6cnnn6)ncc54)C[C@@H]3CO2)c1Cl (stereo not given in full)	0.17	0.06
O=C1OCc2cc([C@H]3CN4CCN(C(=O)C5CCc6cc(-n7cnnn7)ncc65)C[C@H]4CO3)ccc21 (stereo not given in full)		0.06
Cc1c([C@@H]2CN3CCN(C(=O)C4CCc5nc(-n6cnnn6)ccc54)C[C@H]3CO2)ccc(F)c1C#N (stereo not given in full)	0.14	0.08

Further lines, results first:

INH [1] [µM]	INH [2] [µM]	SMILES
0.16	0.04	N#Cc1c(F)ccc([C@@H]2CN3CCN(C(=O)C4CCc5cc(-n6cnnn6)ncc54)C[C@H]3CO2)c1F (stereo not given in full)
0.16	0.09	Cc1c([C@H]2CN3CCN(C(=O)C4CCc5nc(-n6cnnn6)ccc54)C[C@H]3CN2)ccc(F)c1C#N (stereo not given in full)
0.11	0.09	O=C1OCc2cc([C@@H]3CN4CCN(C(=O)C5CCc6nc(-n7cnnn7)ccc65)C[C@H]4CO3)ccc21 (stereo not given in full)
0.54	0.06	Cc1c([C@@H]2CN3CCN(C(=O)C4CCc5nc(-n6cnnn6)ccc54)C[C@H]3CO2)csc1C#N (stereo not given in full)
0.18	0.1	Cc1c([C@H]2CN3CCN(C(=O)C4CCc5cc(-n6cnnn6)ncc54)C[C@H]3CN2)ccc(F)c1C#N (stereo not given in full)
